This is an account of results in PMC7288168, “Synthesis and Cytotoxic Activity of Chiral Sulfonamides Based on the 2-Azabicycloalkane Skeleton” (Molecules, 2020).

Data set [1] relates to human colon cancer HT-29. Details: method as in doi:10.1016/j.tetasy.2016.06.009. Conditions: colon cancer line; cited from earlier work.
Data set [2] is described as follows: Solubility in DMSO for in vitro tests. It is filed as physicochemical. To be noted: DMSO used for the in vitro tests. The procedure:
All tested compounds were dissolved in dimethyl sulfoxide (DMSO). […] To assess the anticancer activity of compounds, we tested human hepatocellular carcinoma (HCC), medulloblastoma (MB), and glioblastoma (GBM) cell lines. Further, to compare the effects of selected compounds on nonmalignant primary cells, we used primary human umbilical vein endothelial cells (HUVEC).
We planned to use compounds 8 and 9 as references in the current study. […] In our further studies, we plan to compare activities of all compounds using ethanol as the solvent.

For data set [3], the system named is D425 cells. Details: method as in von Bueren et al. [31]. To be noted: known chemotherapeutics in D425 cells; ref von Bueren et al. [31]; cited from earlier work.
The subject of data set [4] is U251 cells. Nature of the data set: Neutral red cell viability assay, U251. It is filed as cell-based, human. The method, then:
(§1) The human hepatocellular carcinoma (HCC) cell line HUH7 was purchased from ATCC (LGC standards GmbH, Wesel, Germany). The Austrian human HCC cell line AKH12 has been well characterized and was kindly provided by Prof. Bettina Grasl-Kraupp. HUH7 cells were cultured in Dulbecco’s modified Eagle’s medium (Thermo Fisher Scientific, Waltham, MA, USA) containing 10% heat-inactivated fetal bovine serum (FBS) (Sigma-Aldrich, St. Louis, MO, USA), 1% penicillin-streptomycin (10,000 U/mL) (Thermo Fisher Scientific, Waltham, MA, USA), and 1% minimum essential medium nonessential amino acids (100x) (Thermo Fisher Scientific, Waltham, MA, USA). AKH12 cells were cultured in RPMI1640 medium (Sigma-Aldrich, St. Louis, MO, USA) containing 10% heat-inactivated FBS. DAOY and D283Med (short D283) medulloblastoma (MB) cells were purchased from ATCC (LGC standards GmbH, Wesel, Germany). D425Med (short D425) and UW228-2 were provided by Thomas Ströbel from the Institute of Neurology Medical University of Vienna. The cells were cultured in Dulbecco’s modified Eagle’s medium (Sigma-Aldrich, St. Louis, MO, USA) containing 10% FBS (Sigma-Aldrich, St. Louis, MO, USA), 2% L-Glutamine (Sigma-Aldrich, St. Louis, MO, USA), and 0.2% Normocin (Sigma-Aldrich, St. Louis, MO, USA). U-251 MG (short U251) glioblastoma (GBM) cell line was purchased from Sigma-Aldrich and cultured in Dulbecco’s modified Eagle’s medium (Sigma-Aldrich, St. Louis, MO, USA) containing 10% FBS (Sigma-Aldrich, St. Louis, MO, USA), 2% L-Glutamine (Sigma-Aldrich, St. Louis, MO, USA), and 0.2% Normocin (Sigma-Aldrich, St. Louis, Missouri, USA). Human umbilical vein endothelial cells (HUVECs) were provided by Brigitte Winter from the Department of Surgery Medical University of Vienna and were grown in endothelial cell growth medium-2 BulletKitTM (Lonza, Basel, Switzerland) under standard tissue culture conditions. All cells were incubated at 37 °C in a 5% CO2 atmosphere and regularly checked for mycoplasma contamination.
(§2) Cell viability was determined using a neutral red assay, as previously described. The cells were placed in 24-well plates and grown to reach 70–80% confluency prior to treatment. After treatment for 24 h, cells were incubated with neutral red at a concentration of 50 µg/mL in serum-free medium for 2 h at 37 °C. Cells were then washed 2x and incubated with 1% acetic acid in 70% ethanol. The dye concentration was measured photometrically at 562 nm. The percentage of survival was calculated considering DMSO-treated (indicated as 0 µM concentration) cells as 100% control.
(§3) LD50 was defined as the amount of a toxic agent required to eliminate 50% of the cell population. The LD50 was calculated in each experiment from the respective dose–response curve. All experiments were performed in triplicate wells.

The subject of data set [5] is UW228-2 cells. Nature of the data set: Neutral red cell viability assay, UW228-2.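 For reduction of cell viability, UW228-2: positive call means viability reduced by more than 50%.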 It is filed as cell-based, human. The method, then:
as §1, §2, §3

The subject of data set [6] is HUVEC cells. Nature of the data set: Cell viability assay MTT/CellTiter Blue, HUVEC (Table 2). Conditions: Table 2, nonmalignant primary cells, 24 h, assay as for D425. The class given is cell-based. The procedure:
as §1, §3
(§4) One day before treatment, 2 × 10^4 of D425Med or HUVEC cells were seeded into 24-well plates and incubated at 37 °C in a humidified atmosphere containing 5% CO2.The cells were treated with different compounds for 24 h. A […] assay using the CellTiter Blue reagent (Promega, Fitchburg, Wisconsin, USA) was performed according to the manufacturer’s protocol. Experiments were performed in triplicate and repeated three times. The percentage of survival was calculated as the ratio using DMSO-treated (indicated as 0 µM concentration) cells as 100% control.
For orientation: Resazurin is reduced to fluorescent resorufin, in cell work by metabolically active cells.

Data set [7] concerns DAOY cells. Nature of the data set: Neutral red cell viability assay, DAOY.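 For reduction of cell viability, DAOY: positive call means viability reduced by more than 50%.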 It is filed as cell-based, human. The procedure:
as §1, §2, §3

In data set [8] the test system is HUVEC cells. The data set can be described thus: Neutral red cell viability assay, HUVEC (Table 1). The class given is cell-based. To be noted: Table 1, nonmalignant primary cells, 24 h. The procedure:
as §1, §2, §3

Data set [9] relates to AKH12 cells. The data set can be described thus: Neutral red cell viability assay, AKH12. The class given is cell-based, human. The procedure:
as §1, §2, §3

Data set [10] deals with D283 cells. Nature of the data set: Neutral red cell viability assay, D283.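 For reduction of cell viability, D283: positive call means viability reduced by more than 50%.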 It is filed as cell-based, human. The procedure: as §1, §2, §3
Data set [11] concerns D425 cells. The data set can be described thus: Cell viability assay (suspension cell line), MTT/CellTiter Blue, D425.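 For reduction of cell viability, D425: positive call means viability reduced by more than 50%.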 The class given is cell-based, human. The method, then: as §1, §3, §4
Data set [12] deals with HUH7 cells. Nature of the data set: Neutral red cell viability assay, HUH7. It is filed as cell-based, human. Conditions: Homo sapiens, Huh-7; 24 h treatment, neutral red; read-out: LD50 HUH7 (HCC). The procedure:
as §1, §2, §3

“Also recorded” adds a separate entry of the source.

With `CC(c1ccccc1)N1C2CCC(C2)C1CNCCNCC1C2CCC(C2)N1C(C)c1ccccc1` (centres unmarked) [Compound 8], in data set [1], the IC50 is 7.2 ± 0.8 µM. Also, in data set [2], the “solubility in DMSO” value was “not sufficient; also recorded: insufficiently soluble”.
As to `N.N.[Cl][Pt][Cl]` [cisplatin], the IC50 in [1] was 9.7 ± 2 µM.
As for `CC(c1ccccc1)N1C2CCC(C2)C1CNCC1C2CCC(C2)N1C(C)c1ccccc1` (centres unmarked) [Compound 9], the “solubility in DMSO” value in data set [2] was “not sufficient; also recorded: insufficiently soluble”.
As usually defined, the melting point is the temperature, or range, at which the solid turns liquid. `CC(c1ccccc1)N1C2CCC(C2)C1CN(CCN(CC1C2CCC(C2)N1C(C)c1ccccc1)S(=O)(=O)c1ccc(-c2ccc(Cl)cc2)cc1)S(=O)(=O)c1ccc(-c2ccc(Cl)cc2)cc1` [Compound 12d, Bis-4’-chloro-N,N-{[(1S,3R,4R)-2-((S)-1-phenylethyl)-2-azabicyclo[2.2.1]heptan-3-yl]methyl}-[1,1'-biphenyl]ethyl-4-sulfonamide] showed a melting point of 252 to 255 °C. The “solubility in DMSO” value in [2] is recorded as “not sufficient”.
For the molecule `COc1cc([C@@H]2c3cc4c(cc3[C@@H](O[C@@H]3O[C@@H]5CO[C@@H](C)O[C@H]5[C@H](O)[C@H]3O)[C@H]3COC(=O)[C@H]23)OCO4)cc(OC)c1O` [etoposide], the “LD50 D425” value in data set [3] is reported as 8 µM.
`COc1ccc(-c2ccc(S(=O)(=O)NC3CN(C(C)c4ccccc4)C4CCC3C4)cc2)cc1` [Compound 11e, 4-(4-Methoxyphenyl)-N-((2-((S)-1-phenylethyl)-(1S,4S,5R)-2-azabicyclo[3.2.1]octan-4-yl)benzenesulfonamide]: the “decrease of cell viability, U251” value in data set [4] (50 µM, 24 h, first screening) is “more than 50%”. In addition, the IC50 is 23.7 ± 1.69 µM in data set [4] (Homo sapiens, U-251, 24 h treatment, neutral red, read-out: LD50 U251 (GBM)); 23.5 ± 1.56 µM in [5] (Homo sapiens, UW228-2, 24 h treatment, neutral red, read-out: LD50 UW228-2 (MB)); 24 ± 1.49 µM in data set [7] (Homo sapiens, Daoy, 24 h treatment, neutral red, read-out: LD50 DAOY (MB)); 28 ± 1.39 µM in data set [9] (Homo sapiens, 24 h treatment, neutral red, read-out: LD50 AKH12 (HCC)); 25.9 ± 1.9 µM in data set [10] (Homo sapiens, D283, 24 h treatment, read-out: LD50 D283 (MB)); 17.8 ± 1.04 µM in data set [11] (Homo sapiens, 24 h treatment, suspension cell assay, read-out: LD50 D425 (MB)). Besides, in data set [12], the IC50 came out at 30.2 ± 2.21 µM. The “reduction of cell viability, UW228-2” value in data set [5] (50 µM, 24 h, first screening) is “reduced cell viability”. The “LD50 HUVEC” value amounted to 36.38 ± 4.37 µM in [6] and 17.58 ± 2.94 µM in [8]. Further, the “reduction of cell viability, DAOY” value in data set [7] (50 µM, 24 h, first screening) was “reduced cell viability”. In addition, in data set [9] (50 µM, 24 h, first screening), the “reduction of cell viability, AKH12” value is on record as “reduced cell viability below LD50”. Besides, in data set [10] (50 µM, 24 h, first screening), the “reduction of cell viability, D283” value is given as “reduced cell viability”. In addition, the “reduction of cell viability, D425” value in [11] (50 µM, 24 h, first screening) is given as “reduced cell viability”. In [11] (dose-response 24 h, Student's t-test, p ≤0.05 / p ≤0.01), the “D425 cell viability as compared to HUVEC cells” value is listed as “significantly reduced D425 cell viability as compared to HUVEC cells”. For the same molecule, in data set [11] (ratio of LD50 HUVEC to LD50 D425), the “HUVEC/D425 LD50 Fold Change” value was found to be 2.04.
With `Cc1ccc(-c2ccc(S(=O)(=O)N(CCN(CC3C4CCC(C4)N3C(C)c3ccccc3)S(=O)(=O)c3ccc(-c4ccc(C)cc4)cc3)CC3C4CCC(C4)N3C(C)c3ccccc3)cc2)cc1` [Compound 12b, Bis-4’-methyl-N,N-{[(1S,3R,4R)-2-((S)-1-phenylethyl)-2-azabicyclo[2.2.1]heptan-3-yl]methyl}-[1,1'-biphenyl]ethyl-4-sulfonamide], the melting point lay within 120 to 125 °C. For the same molecule, the “solubility in DMSO” value in [2] is “not sufficient”.
